Assay results published in ChEMBL document CHEMBL1201862, “PubChem BioAssay data set” (2004).
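Five compound concentrations were applied to cells in 96-well plates for 48 hours; endpoints were derived by simple linear interpolation of the resulting dose-response curve. Abbreviation: GI50, concentration required for 50% inhibition of growth.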 Activity calls are given as the source filed them. Rule as the data show it: active = GI50 up to about 1.1 µM and inactive = higher.

Key:
Experiment in all cases: NCI anticancer screen, dose series, 48 h
A498 = system: A498
CAKI-1 = system: CAKI-1
COLO 205 = system: COLO 205
DU-145 = system: DU-145
HCC 2998 = system: HCC 2998
HCT-116 = system: HCT-116
HCT-15 = system: HCT-15
HOP-92 = system: HOP-92
HT-29 = system: HT-29
IGROV-1 = system: IGROV-1
K562 = system: K562
KM12 = system: KM12
LOX IMVI = system: LOX IMVI
M14 = system: M14
MCF7 = system: MCF7
MDA-MB-231 = system: MDA-MB-231
MDA-MB-435 = system: MDA-MB-435
MOLT-4 = system: MOLT-4
Malme-3M = system: Malme-3M
NCI-H226 = system: NCI-H226
NCI-H23 = system: NCI-H23
NCI-H460 = system: NCI-H460
NCI/ADR-RES = system: NCI/ADR-RES
OVCAR-8 = system: OVCAR-8
SF-295 = system: SF-295
SK-MEL-28 = system: SK-MEL-28
SK-MEL-5 = system: SK-MEL-5
SK-OV-3 = system: SK-OV-3
SNB-75 = system: SNB-75
T47D = system: T47D
TK-10 = system: TK-10
UACC-62 = system: UACC-62
UO-31 = system: UO-31
786-0 = system: 786-0
A549 = system: A549
ACHN = system: ACHN
CCRF-CEM = system: CCRF-CEM
EKVX = system: EKVX
Hs-578T = system: Hs-578T
MDA-N = system: MDA-N
OVCAR-4 = system: OVCAR-4
PC-3 = system: PC-3
RPMI-8226 = system: RPMI-8226
RXF 393 = system: RXF 393
SF-268 = system: SF-268
SN12C = system: SN12C
SNB-19 = system: SNB-19
SW-620 = system: SW-620
U-251 = system: U-251
UACC-257 = system: UACC-257
HOP-62 = system: HOP-62
NCI-H522 = system: NCI-H522
OVCAR-3 = system: OVCAR-3
OVCAR-5 = system: OVCAR-5
SF-539 = system: SF-539
SK-MEL-2 = system: SK-MEL-2
SR = system: SR

Structure (SMILES): OCC1NC(CO)C(O)C1O (configuration not stated)
- GI50 (A498): > 100 µM (inactive)
- GI50 (CAKI-1): > 100 µM (inactive)
- GI50 (COLO 205): > 100 µM (inactive)
- GI50 (DU-145): > 100 µM (inactive)
- GI50 (HCC 2998): > 100 µM (inactive)
- GI50 (HCT-116): > 100 µM (inactive)
- GI50 (HCT-15): > 100 µM
- GI50 (HOP-92): > 100 µM (inactive)
- GI50 (HT-29): > 100 µM (inactive)
- GI50 (IGROV-1): > 100 µM (inactive)
- GI50 (K562): > 100 µM (inactive)
- GI50 (KM12): > 100 µM (inactive)
- GI50 (LOX IMVI): > 100 µM (inactive)
- GI50 (M14): > 100 µM (inactive)
- GI50 (MCF7): > 100 µM (inactive)
- GI50 (MDA-MB-231): > 100 µM (inactive)
- GI50 (MDA-MB-435): > 100 µM (inactive)
- GI50 (MOLT-4): > 100 µM (inactive)
- GI50 (Malme-3M): > 100 µM (inactive)
- GI50 (NCI-H226): > 100 µM (inactive)
- GI50 (NCI-H23): > 100 µM (inactive)
- GI50 (NCI-H460): > 100 µM (inactive)
- GI50 (NCI/ADR-RES): > 100 µM (inactive)
- GI50 (OVCAR-8): > 100 µM (inactive)
- GI50 (SF-295): > 100 µM (inactive)
- GI50 (SK-MEL-28): > 100 µM (inactive)
- GI50 (SK-MEL-5): > 100 µM (inactive)
- GI50 (SK-OV-3): > 100 µM (inactive)
- GI50 (SNB-75): > 100 µM (inactive)
- GI50 (T47D): > 100 µM (inactive)
- GI50 (TK-10): > 100 µM (inactive)
- GI50 (UACC-62): > 100 µM (inactive)
- GI50 (UO-31): > 100 µM (inactive)

Structure (SMILES): COc1ccc2c(ccc3c(C(=O)NCCCN(C)CCCNC(=O)c4cn(C)c5c4ccc4cc(OC)ccc45)cn(C)c32)c1
- GI50 (786-0): 1.49 µM (inactive)
- GI50 (A498): 28.6 µM (inactive)
- GI50 (A549): 1.43 µM (inactive)
- GI50 (ACHN): 1.66 µM (inactive)
- GI50 (CAKI-1): 1.64 µM (inactive)
- GI50 (CCRF-CEM): 1.07 µM (active)
- GI50 (COLO 205): 2.11 µM (inactive)
- GI50 (DU-145): 1.67 µM (inactive)
- GI50 (EKVX): 1.57 µM (inactive)
- GI50 (HCC 2998): 1.61 µM (inactive)
- GI50 (HCT-116): 1.73 µM (inactive)
- GI50 (HCT-15): 1.32 µM
- GI50 (Hs-578T): 2.33 µM (inactive)
- GI50 (IGROV-1): 1.53 µM (inactive)
- GI50 (K562): 0.403 µM (active)
- GI50 (KM12): 1.56 µM (inactive)
- GI50 (LOX IMVI): 2.26 µM (inactive)
- GI50 (M14): 1.59 µM (inactive)
- GI50 (MDA-MB-435): 1.89 µM (inactive)
- GI50 (MDA-N): 1.53 µM (inactive)
- GI50 (MOLT-4): 2.23 µM (inactive)
- GI50 (NCI-H23): 1.58 µM (inactive)
- GI50 (NCI-H460): 1.47 µM (inactive)
- GI50 (OVCAR-4): 1.71 µM (inactive)
- GI50 (PC-3): 1.55 µM (inactive)
- GI50 (RPMI-8226): 2.35 µM (inactive)
- GI50 (RXF 393): 2.12 µM (inactive)
- GI50 (SF-268): 1.78 µM (inactive)
- GI50 (SF-295): 2.15 µM (inactive)
- GI50 (SK-MEL-28): 1.77 µM (inactive)
- GI50 (SK-MEL-5): 1.9 µM (inactive)
- GI50 (SN12C): 1.57 µM (inactive)
- GI50 (SNB-19): 1.79 µM (inactive)
- GI50 (SW-620): 1.83 µM (inactive)
- GI50 (U-251): 1.92 µM (inactive)
- GI50 (UACC-257): 1.57 µM (inactive)
- GI50 (UACC-62): 1.77 µM (inactive)
- GI50 (UO-31): 1.66 µM (inactive)

Structure (SMILES): O=C(O)CCCC#CCCCC(=O)O
- GI50 (786-0): > 100 µM (inactive)
- GI50 (A498): > 100 µM (inactive)
- GI50 (A549): > 100 µM (inactive)
- GI50 (ACHN): > 100 µM (inactive)
- GI50 (CAKI-1): > 100 µM (inactive)
- GI50 (COLO 205): > 100 µM (inactive)
- GI50 (DU-145): > 100 µM (inactive)
- GI50 (EKVX): > 100 µM (inactive)
- GI50 (HCC 2998): > 100 µM (inactive)
- GI50 (HCT-116): > 100 µM (inactive)
- GI50 (HCT-15): > 100 µM
- GI50 (HOP-62): > 100 µM (inactive)
- GI50 (HOP-92): > 100 µM (inactive)
- GI50 (HT-29): > 100 µM (inactive)
- GI50 (Hs-578T): > 100 µM (inactive)
- GI50 (IGROV-1): > 100 µM (inactive)
- GI50 (K562): > 100 µM (inactive)
- GI50 (KM12): > 100 µM (inactive)
- GI50 (LOX IMVI): > 100 µM (inactive)
- GI50 (M14): > 100 µM (inactive)
- GI50 (MCF7): > 100 µM (inactive)
- GI50 (MDA-MB-435): > 100 µM (inactive)
- GI50 (MDA-N): > 100 µM (inactive)
- GI50 (Malme-3M): > 100 µM (inactive)
- GI50 (NCI-H23): > 100 µM (inactive)
- GI50 (NCI-H460): > 100 µM (inactive)
- GI50 (NCI-H522): > 100 µM (inactive)
- GI50 (NCI/ADR-RES): > 100 µM (inactive)
- GI50 (OVCAR-3): > 100 µM (inactive)
- GI50 (OVCAR-4): > 100 µM (inactive)
- GI50 (OVCAR-5): > 100 µM (inactive)
- GI50 (OVCAR-8): > 100 µM (inactive)
- GI50 (PC-3): > 100 µM (inactive)
- GI50 (RXF 393): > 100 µM (inactive)
- GI50 (SF-268): > 100 µM (inactive)
- GI50 (SF-295): > 100 µM (inactive)
- GI50 (SF-539): > 100 µM (inactive)
- GI50 (SK-MEL-28): > 100 µM (inactive)
- GI50 (SK-MEL-2): > 100 µM (inactive)
- GI50 (SK-MEL-5): > 100 µM (inactive)
- GI50 (SK-OV-3): > 100 µM (inactive)
- GI50 (SN12C): > 100 µM (inactive)
- GI50 (SNB-19): > 100 µM (inactive)
- GI50 (SNB-75): 43.5 µM (inactive)
- GI50 (SR): > 100 µM (inactive)
- GI50 (T47D): > 100 µM (inactive)
- GI50 (TK-10): > 100 µM (inactive)
- GI50 (U-251): > 100 µM (inactive)
- GI50 (UACC-257): > 100 µM (inactive)
- GI50 (UACC-62): > 100 µM (inactive)
- GI50 (UO-31): > 100 µM (inactive)
